The results in this text go back to ChEMBL document CHEMBL1156251, “Structure--activity relationships of polymyxin antibiotics” (J Med Chem, 2010).

Converted amounts (≈) assume the structure as drawn. Where a SMILES comes first, the peptide text is derived from it. Bridges are numbered along the chain shown (N, C = ends). [ ]: non-standard residue; d: D form. The star is where a group is joined. Octanoyl = CCCCCCCC(=O)*; Dab = NCC[C@H](N)C(=O)O

As usually defined, the MIC is the smallest concentration in the dilution series that meets the test's criterion for growth inhibition. High values mean a less susceptible organism, low ones a more susceptible organism. As usually defined, the IC50 is the concentration that inhibits the measured activity by half. Low values mean higher potency, high ones lower potency.

In data set [1] the test system is Escherichia coli. Kind of data set: Antimicrobial activity against Escherichia coli. In kind it is functional.
Data set [2] relates to Pseudomonas aeruginosa. Kind of data set: Antimicrobial activity against Pseudomonas aeruginosa. In kind it is functional, organism-based.
Data set [3] concerns Klebsiella pneumoniae. Kind of data set: Antimicrobial activity against Klebsiella pneumoniae. The class given is functional.
Data set [4] is described as follows: (§1) Toxicity in iv dosed CF1 mouse. The class given is organism-based. The settings on record: CF1, mouse, in vivo.
Data set [5] relates to Mus musculus. Kind of data set: Protective activity in sc dosed CF1 mouse. To be noted: in vivo.
Data set [6] deals with Escherichia coli. Kind of data set: Antimicrobial activity against PMB-susceptible Escherichia coli SC9251. In kind it is functional.
Data set [7] concerns Escherichia coli. Kind of data set: Antimicrobial activity against PMB-resistant Escherichia coli SC9253. The class given is functional.
The species entered for data set [8] is Mus musculus. Kind of data set: Toxicity in mouse. The settings on record: in vivo. The class given is organism-based.
Data set [9] addresses Lipopolysaccharide (LPS). Kind of data set: Displacement of dansyl-PMB from LPS by isothermal titration calorimetry. In general terms: ITC needs no label: the signal is the heat of the interaction.
Data set [10] relates to Mus musculus. The description is as §1. In kind it is organism-based. The settings on record: mouse, in vivo.
The subject of data set [11] is Mus musculus. Nature of the data set: Acute toxicity in iv dosed mouse. In kind it is organism-based. The settings on record: in vivo.

With `CCCCCCCC(=O)N[C@@H](CCN)C(=O)N[C@H](C(=O)N[C@@H](CCN)C(=O)N[C@H]1CCNC(=O)[C@H]([C@@H](C)O)NC(=O)[C@H](CCNC(=O)[C@@H](N)CCCNC(=N)N)NC(=O)[C@H](CCN)NC(=O)[C@H](CC(C)C)NC(=O)[C@@H](Cc2ccccc2)NC(=O)[C@H](CCN)NC1=O)[C@@H](C)O` (Octanoyl-[Dab]T[Dab][Dab][Dab][dF]L[Dab][Dab](Arg)T; lactam 4-C), the minimum inhibitory concentration (MIC) was 0.16 µg/mL (≈ 0.119 µM) in data set [1], 0.03 µg/mL (≈ 0.0223 µM) in data set [2] and 2 µg/mL (≈ 1.49 µM) in [3]. In data set [4], this compound showed an LD50 of 15 mg/kg. In data set [5], this compound showed a PD50 of 0.25 mg/kg.
Take `CC(C)CCCCCC(O)CC(=O)N[C@@H](CCN)C(=O)N[C@H]1CCNC(=O)[C@H](CC(C)C)NC(=O)[C@H](CCN)NC(=O)[C@H](CCN)NC(=O)[C@H](CC(C)C)NC(=O)[C@@H](Cc2ccccc2)NC(=O)[C@H](CCN)NC1=O` (stereo partly specified) [OCTAPEPTIN A1]: the MIC worked out at 1.7 µg/mL (≈ 1.61 µM) in data set [6] and 0.3 µg/mL (≈ 0.283 µM) in data set [7].
As for POLYMYXIN B, the LD50 in data set [8] was determined as 9 mg/kg; in data set [10], 9 mg/kg; in data set [11] it was 4.8 µM/g. The compound also yielded an IC50 in data set [9] of 4 µM.
